Test results from paper PMC10301333, “The C-Terminus of Panusin, a Lobster β-Defensin, Is Crucial for Optimal Antimicrobial Activity and Serum Stability” (Pharmaceutics, 2023).
Values after ≈ are worked out from the molar mass of the structure shown. Read-outs that look alike come from different tables or passages of the source. Bridge positions count the residues as written; N and C are the ends. Peptide text beside a SMILES is read from it.

Key:
horse red blood cells = test: Hemolytic activity (hemoglobin release)
Description: Both peptides were tested for hemolytic activity on horse red blood cells (RBCs), as described earlier. Briefly, fresh RBCs in PBS (pH 7.4) were first centrifuged 3 × 1500× g for 5 min, then diluted 1:10 with PBS to yield an RBC concentration of ~5 × 10^8 cells/mL. RBCs were then incubated for 1 h at 37 °C with 2-fold serial dilutions of PaD or Ct_PaD covering a 0.24–250 μM concentration range. Next, 0.1% TritonX100 and PBS were used as positive and negative controls, respectively. After incubation, samples were centrifuged at 1500× g for 10 min at room temperature and the supernatant (60 μL) was transferred to a flat-bottomed 96-well polypropylene microplate (Greiner, Frickenhausen, Germany). Hemoglobin release was then measured as OD at 540 nm in a VICTOR3 microplate reader (Perkin Elmer, Waltham, MA, USA). Percent hemolysis was calculated as indicated below (Equation (1)).

MTT cytotoxicity assay = assay type: cell-based; conditions: human
Description: MRC-5 cells were cultured in Eagle’s minimum essential medium (MEMα), supplemented with 10% (v/v) fetal bovine serum (FBS) and a 1% penicillin (100 IU/mL)/streptomycin (100 μg/mL) solution, and maintained at 37 °C in a humidified atmosphere with 5% CO2. After cells were grown, they were seeded into 96-well plates at 3 × 10^4 cells/well and cultured overnight to adhere to the plate. Subsequently, adherent cells were incubated for 4 h under standard conditions (5% CO2, 37 °C) with 2-fold serial dilutions of each peptide in a 1.56–200 μM concentration range. Following incubation, the peptide-containing medium was replaced with MEM supplemented with FBS and 3-(4,5-dimethylthiazol-2-yl)-2,5 diphenyltetrazolium bromide (MTT) at 0.4 mg/mL, and the cells were further incubated for 120 min. Formazan crystals in live cells were detected after disruption with 200 μL of DMSO by OD measurement at 570 nm in a Tecan microplate reader. […] Data are the average of three independent replicates.

[1] = Analytical RP-HPLC retention time as measure of hydrophobic character; assay type: physicochemical; conditions: chromatographic, Luna C18 4.6 × 50 mm, 3 µm; 10 to 50 linear gradient of MeCN (0.036% TFA) into H2O (0.045% TFA) over 15 min, 1 mL/min, UV 220 nm; used as indicator of hydrophobic character
Description: Analytical RP-HPLC was performed on an LC-2010 instrument (Shimadzu, Kyoto, Japan) using a Luna C18 column (4.6 × 50 mm, 3 µm; Phenomenex, Torrance, CA, USA), eluted with linear gradients of solvent B (0.036% TFA in MeCN) into solvent A (0.045% TFA in H2O) over 15 min at a 1 mL/min flow rate, with UV detection at 220 nm.
The HPLC retention times of PaD and Ct_PaD reflect some differences in hydrophobic character. […] Such differences in hydrophobicity might influence both antimicrobial and cytotoxic activity, which were therefore assessed next.
Supplementary Materials: The C-terminus of Panusin, a Lobster β-defensin, Is Crucial for Optimal Antimicrobial
Activity and Serum Stability
Roberto Bello-Madruga, Javier Valle, M. Ángeles Jiménez, Marc Torrent, Vivian Montero-Alejoand David Andreu
1. Synthetic Peptide Characterization
Table S1. Peptide Analytical Data.
1 Theoretical Experimental HPLC Retention Purity
Peptide Mass (Da) Mass (Da)2 Time (min)3 (HPLC, %)4
1 All peptides are C-terminal carboxamides; 2 Determined by LC-MS, 3 Elution was carried out with a 10 to 50 linear gradient over 15 min; 4 Determined by analytical HPLC.
Figure S1. RP-HPLC elution profile of purified peptides. […]

Acinetobacter baumannii = conditions: for MBC: 24 h
Description: (§1) Antimicrobial activities of both PaD and Ct_PaD were determined in a modified microdilution assay as described previously for other β-defensins such as peptides. The assay was performed in sterile polypropylene 96-well plates that prevent peptide binding (Greiner, Frickenhausen, Germany). From a bacterial isolate, a single colony was seeded in Mueller Hinton Broth (MHB, Condalab, Torrejón de Ardoz, Spain) and allowed to grow at 37 °C in an incubator with orbital shaking at 250 rpm overnight. Subsequently, a new bacterial culture was seeded from the overnight culture and allowed to grow to an OD of 0.5 at 600 nm. The bacterial suspension was diluted to a final concentration of 5 × 10^5 CFU (colony formation unit)/mL in sterile 10 mM phosphate buffer (PB: 2.46 mM NaH2PO4, 7.5 mM Na2HPO4, pH 7.4), used as the working culture. Next, 50 μL of 2-fold serial dilutions of each peptide in PB were placed on the plates to provide a final 0.097–100 µM concentration range after which 50 μL of working culture was applied to each well. The plate was first incubated for 2 h at 37 °C, then 100 μL of MHB 2× was added to each well and was incubated at 37 °C overnight with shaking. The growth of bacteria was measured by the optical density at 600 nm in a microplate reader (Tecan, Männedorf, Switzerland). The minimum inhibitory concentration (MIC) was defined as the minimum peptide concentration in which the microorganism is unable to grow. The results are the average of three independent studies. […] MBC was defined for each peptide as the lowest concentration with no bacterial growth detected.

Enterococcus faecium = conditions: for MBC: 24 h
Description: as §1

Escherichia coli = conditions: for MBC: 24 h
Description: as §1

Micrococcus luteus = conditions: for MBC: 24 h
Description: as §1

Pseudomonas aeruginosa = conditions: for MBC: 24 h
Description: as §1

Staphylococcus aureus = conditions: for MBC: 24 h
Description: as §1

human erythrocytes = conditions: natural panusin; cited from earlier work
Description: Panusin, isolated from hemocytes of the spiny lobster Panulirus argus (PaD), is representative of those invertebrate peptides, which are related to mammalian β-defensins. PaD is comprised of 39 amino acid residues that fold into a well-described cysteine-stabilized αβ (CSαβ) motif, consisting of an α-helix and three antiparallel […]. These […] are strongly stabilized by three disulfide bonds. […] These properties mark it a ...

in vitro = conditions: human, human serum (50% v/v in water), t1/2 values, proteolysis in human serum, 37 °C, 24 h incubation
Description: Peptide samples (500 μL, 500 μM in H2O) were mixed and incubated with 500 μL of human serum (Sigma-Aldrich, St. Louis, MO, USA) for 24 h at 37 °C. Aliquots (120 μL) were taken at 0, 30, 120, 360, 720, and 1440 min and treated with 20 μL of trichloroacetic acid (15% (v/v) in H2O). The suspension was centrifuged for 30 min at 13,000 rpm, 4 °C, and the supernatant was analyzed by RP-HPLC as described above. The unaltered peptide was determined by RP-HPLC peak integration, expressed as the percent of the amount at t0, and data were fitted to a one-phase exponential decay model using GraphPad Prism 8.01 to estimate half-life time (t1/2). Results are the average of three independent runs.

## CC(C)C[C@@H]1NC(=O)[C@H](CCCNC(=N)N)NC(=O)[C@H](CC(N)=O)NC(=O)CNC(=O)[C@H](Cc2ccc(O)cc2)NC(=O)[C@@H]2CCCN2C(=O)[C@@H](NC(=O)[C@@H](N)Cc2ccc(O)cc2)CSSC[C@@H](C(=O)N[C@@H](CCCNC(=N)N)C(=O)N[C@@H](CCCNC(=N)N)C(=O)N[C@@H](CO)C(=O)N[C@@H](Cc2ccc(O)cc2)C(N)=O)NC(=O)[C@@H]2CSSC[C@H](NC(=O)[C@H](Cc3ccccc3)NC(=O)[C@H](Cc3ccc(O)cc3)NC(=O)[C@H](CC(N)=O)NC1=O)C(=O)N1CCC[C@H]1C(=O)N[C@@H](CC(C)C)C(=O)NCC(=O)N[C@@H](CCCNC(=N)N)C(=O)N[C@@H]([C@@H](C)O)C(=O)N2 [Ct_PaD] (H-YCPYGNRLNYFCPLGRTCCRRSY-NH2; disulfide 2-19, 12-18; N-terminus assumed)
Horse red blood cells; horse red blood cell lysis, tested up to 250 μM, hemoglobin release at 540 nm
  Hemolytic activity (result in words): absence of hemolytic activity
MTT cytotoxicity assay; MRC-5 cells, 4 h peptide incubation, 1.56–200 μM, MTT, OD 570 nm, average of three independent replicates, read-out: MRC-5 cytotoxicity (IC50)
  IC50 at 4 h: 175 ± 1.5 µM
[1]
  HPLC Retention Time: 6.65 min

## CC[C@H](C)[C@H](NC(=O)[C@H](CCCCN)NC(=O)[C@H](CCC(=O)O)NC(=O)[C@H](CCCCN)NC(=O)[C@H](CO)NC(=O)[C@H](CCCCN)NC(=O)[C@H](CCCNC(=N)N)NC(=O)[C@H](Cc1ccccc1)NC(=O)[C@H](Cc1ccccc1)NC(=O)[C@H](CC(=O)O)NC(=O)CNC(=O)[C@H](CC(C)C)NC(=O)[C@@H](N)CC(C)C)C(=O)NCC(=O)N[C@@H](CCCCN)C(=O)N[C@@H](CCC(=O)O)C(=O)N[C@@H](Cc1ccccc1)C(=O)N[C@@H](CCCCN)C(=O)N[C@@H](CCCNC(=N)N)C(=O)N[C@H](C(=O)N[C@H](C(=O)N[C@@H](CCC(N)=O)C(=O)N[C@@H](CCCNC(=N)N)C(=O)N[C@H](C(=O)N[C@@H](CCCCN)C(=O)N[C@@H](CC(=O)O)C(=O)N[C@@H](Cc1ccccc1)C(=O)N[C@@H](CC(C)C)C(=O)N[C@@H](CCCNC(=N)N)C(=O)N[C@@H](CC(N)=O)C(=O)N[C@@H](CC(C)C)C(=O)N[C@H](C(=O)N1CCC[C@H]1C(=O)N[C@@H](CCCNC(=N)N)C(=O)N[C@H](C(=O)N[C@@H](CCC(=O)O)C(=O)N[C@@H](CO)C(=O)O)[C@@H](C)O)C(C)C)[C@@H](C)CC)C(C)C)[C@@H](C)CC [LL-37, reference compound]
Acinetobacter baumannii; A. baumannii ATCC 15308, 10 mM phosphate buffer pH 7.4, 2 h at 37 °C, then MHB overnight, OD 600 nm, average of three independent studies
  MIC: 6.3 µM (≈ 28.3 µg/mL)
Acinetobacter baumannii; A. baumannii ATCC 15308, plated, 37 °C, lowest concentration with no bacterial growth
  MBC: 6.3 µM (≈ 28.3 µg/mL)
Enterococcus faecium; E. faecium ATCC 19434, 10 mM phosphate buffer pH 7.4, 2 h at 37 °C, then MHB overnight, OD 600 nm, average of three independent studies
  MIC: 1.6 µM (≈ 7.19 µg/mL)
Enterococcus faecium; E. faecium ATCC 19434, plated, 37 °C, lowest concentration with no bacterial growth
  MBC: 3.1 µM (≈ 13.9 µg/mL)
Escherichia coli; E. coli BW25113, 5 × 10^5 CFU/mL in 10 mM phosphate buffer pH 7.4, 2 h at 37 °C, then MHB overnight, OD 600 nm, average of three independent studies
  MIC: 1.6 µM (≈ 7.19 µg/mL)
Escherichia coli; E. coli BW25113, 50 μL of wells seeded into Petri plates, 37 °C, lowest concentration with no bacterial growth
  MBC: 3.1 µM (≈ 13.9 µg/mL)
Micrococcus luteus; M. luteus ATCC 15,307, 10 mM phosphate buffer pH 7.4, 2 h at 37 °C, then MHB overnight, OD 600 nm, average of three independent studies
  MIC: 1.6 µM (≈ 7.19 µg/mL)
Micrococcus luteus; M. luteus ATCC 15,307, plated, 37 °C, lowest concentration with no bacterial growth
  MBC: 3.1 µM (≈ 13.9 µg/mL)
Pseudomonas aeruginosa; P. aeruginosa ATCC 15692, 10 mM phosphate buffer pH 7.4, 2 h at 37 °C, then MHB overnight, OD 600 nm, average of three independent studies
  MIC: 1.6 µM (≈ 7.19 µg/mL)
Pseudomonas aeruginosa; P. aeruginosa ATCC 15692, plated, 37 °C, lowest concentration with no bacterial growth
  MBC: 1.6 µM (≈ 7.19 µg/mL)
Staphylococcus aureus; S. aureus ATCC 12600, 10 mM phosphate buffer pH 7.4, 2 h at 37 °C, then MHB overnight, OD 600 nm, average of three independent studies
  MIC: 25 µM (≈ 112 µg/mL)
Staphylococcus aureus; S. aureus ATCC 12600, plated, 37 °C, lowest concentration with no bacterial growth
  MBC: 25 µM (≈ 112 µg/mL)
Horse red blood cells; horse RBCs ~5 × 10^8 cells/mL in PBS pH 7.4, 1 h, 37 °C, 250 µM peptide, OD 540 nm, vs 0.1% TritonX100, average of three independent replicates
  Hemolysis % (250 µM peptide): 17.5 ± 0.3%

## CC(C)C[C@@H]1NC(=O)[C@H](CCCNC(=N)N)NC(=O)[C@H](CC(N)=O)NC(=O)CNC(=O)[C@H](Cc2ccc(O)cc2)NC(=O)[C@@H]2CCCN2C(=O)[C@@H]2CSSC[C@@H](C(=O)N[C@@H](CCCNC(=N)N)C(=O)N[C@@H](CCCNC(=N)N)C(=O)N[C@@H](CO)C(=O)N[C@@H](Cc3ccc(O)cc3)C(N)=O)NC(=O)[C@@H]3CSSC[C@H](NC(=O)[C@H](CC(=O)O)NC(=O)CNC(=O)[C@@H](NC(=O)[C@H](Cc4ccc(O)cc4)NC(=O)[C@@H](N)CO)C(C)C)C(=O)NCC(=O)N[C@@H](CO)C(=O)N[C@@H](CC(N)=O)C(=O)NCC(=O)NCC(=O)N[C@@H](CO)C(=O)N[C@@H](CSSC[C@H](NC(=O)[C@H](Cc4ccccc4)NC(=O)[C@H](Cc4ccc(O)cc4)NC(=O)[C@H](CC(N)=O)NC1=O)C(=O)N1CCC[C@H]1C(=O)N[C@@H](CC(C)C)C(=O)NCC(=O)N[C@@H](CCCNC(=N)N)C(=O)N[C@@H]([C@@H](C)O)C(=O)N3)C(=O)N[C@@H](C(C)C)C(=O)N[C@@H](CO)C(=O)N[C@@H](CO)C(=O)N[C@@H](Cc1ccc(O)cc1)C(=O)N2 [PaD] (H-SYVGDCGSNGGSCVSSYCPYGNRLNYFCPLGRTCCRRSY-NH2; disulfide 6-34, 13-28, 18-35)
Acinetobacter baumannii; 2 h, pH 7.4
  MIC: 25 µM (≈ 106 µg/mL)
Acinetobacter baumannii
  MBC: 25 µM (≈ 106 µg/mL)
Enterococcus faecium; 2 h, pH 7.4
  MIC: 25 µM (≈ 106 µg/mL)
Enterococcus faecium
  MBC: 25 µM (≈ 106 µg/mL)
Escherichia coli; 2 h, pH 7.4
  MIC: 12.5 µM (≈ 53.2 µg/mL)
Escherichia coli
  MBC: 12.5 µM (≈ 53.2 µg/mL)
Micrococcus luteus; 2 h, pH 7.4
  MIC: 12.5 µM (≈ 53.2 µg/mL)
Micrococcus luteus
  MBC: 12.5 µM (≈ 53.2 µg/mL)
Pseudomonas aeruginosa; 2 h, pH 7.4
  MIC: 25 µM (≈ 106 µg/mL)
Pseudomonas aeruginosa
  MBC: 25 µM (≈ 106 µg/mL)
Staphylococcus aureus; 2 h, pH 7.4
  MIC: 25 µM (≈ 106 µg/mL)
Staphylococcus aureus
  MBC: 25 µM (≈ 106 µg/mL)
Horse red blood cells; pH 7.4
  Hemolysis % (250 µM peptide): 0.6 ± 0.02%
MTT cytotoxicity assay
  IC50 at 4 h: 145 ± 1.7 µM
Human erythrocytes
  Hemolytic effect on human erythrocytes: no hemolytic effect
In vitro
  half-life at 250 µM: > 24 h
